Read-outs that look alike come from different tables or passages of the source.

The text below walks through data of PMC4287973, “Tumor cell-specific inhibition of MYC function using small molecule inhibitors of the HUWE1 ubiquitin ligase” (EMBO Molecular Medicine, 2014).

The target in one assay is T1, NEDD4L (Homo sapiens, UniProt Q96PU5).
T1 construct: HECT-domains of multiple ligases auto-ubiquitinate in in vitro assays containing both UBA1 and UbcH5b
T1 sequence (Q96PU5 640-974 limits assumed): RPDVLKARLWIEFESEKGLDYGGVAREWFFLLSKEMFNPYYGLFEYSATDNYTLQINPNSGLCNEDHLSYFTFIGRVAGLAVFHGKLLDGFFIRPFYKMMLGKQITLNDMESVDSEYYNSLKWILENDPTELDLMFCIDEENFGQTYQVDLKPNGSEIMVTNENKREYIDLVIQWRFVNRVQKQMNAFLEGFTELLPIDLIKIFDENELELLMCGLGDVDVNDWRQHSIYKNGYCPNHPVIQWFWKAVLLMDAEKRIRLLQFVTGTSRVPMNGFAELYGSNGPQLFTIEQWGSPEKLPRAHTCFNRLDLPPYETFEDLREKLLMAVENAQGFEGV
Briefly: in vitro HECT-domain auto-ubiquitination assay, NEDD4L. The assay is classed as biochemical.

Another assay deals with T2, ITCH (Homo sapiens, UniProt Q96J02).
T2 construct: HECT-domains of multiple ligases auto-ubiquitinate in in vitro assays containing both UBA1 and UbcH5b
T2 sequence (Q96J02 569-903 limits assumed, species assumed): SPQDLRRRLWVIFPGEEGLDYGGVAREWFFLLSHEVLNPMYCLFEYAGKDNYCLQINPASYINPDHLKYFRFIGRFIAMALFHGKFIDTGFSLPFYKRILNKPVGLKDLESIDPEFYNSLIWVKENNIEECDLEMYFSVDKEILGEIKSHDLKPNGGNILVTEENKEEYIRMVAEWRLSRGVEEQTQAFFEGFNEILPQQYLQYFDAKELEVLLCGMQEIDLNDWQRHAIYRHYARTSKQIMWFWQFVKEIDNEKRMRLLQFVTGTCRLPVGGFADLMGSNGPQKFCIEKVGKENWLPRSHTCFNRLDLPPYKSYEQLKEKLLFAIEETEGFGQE
Description: in vitro HECT-domain auto-ubiquitination assay, ITCH. The assay is classed as biochemical.

The subject of a further assay is Ls174T cells. Briefly: Crystal violet growth assay of control and partially HUWE1-depleted Ls174T cells (IC50 shift). Particulars: Homo sapiens, 120 h, crystal violet after five days. Format: cell-based. Here is the method: Partial shRNA-mediated depletion of HUWE1 led to a moderate, but highly significant reduction in IC50 value for growth inhibition by BI8622, arguing that growth inhibition is an on-target effect of the inhibitor (Supplementary Fig S6). […] Incubation with either compound retarded passage of Ls174T cells through all phases of the cell cycle, with the effect being strongest for G1. In contrast to colon carcinoma cells, HUWE1 is not required for proliferation of embryonic stem (ES) cells and deletion of HUWE1 instead delays the decrease of N-MYC levels that occurs upon removal of leukemia inhibitory factor (LIF) from the medium (Zhao et al, [2008]). […] Furthermore, inhibition of HUWE1 in crypt cultures of normal intestinal epithelial cells had no effect on expression of MYC target genes (Fig4G).
HCT116, HEK293T, HeLa, HT29, ES, Phoenix, and U2OS cells were cultivated in DMEM (Sigma). Ls174T and SW480 cells were grown in RPMI 1640 (Sigma). All media were supplemented with 10% FBS (Biochrom AG) and 1% penicillin/streptomycin (Sigma). Medium for ES cells contained 15% FBS, 1% NEAA (Gibco), 6 μg/ml LIF, and 0.05 mM β-mercaptoethanol (Sigma). […] Quantification of crystal violet staining was performed by extracting dye with 10% acetic acid and measuring absorbance at 590 nm. IC50 values were calculated using the four parameter logistic equation model. […]
C. Quantification of the staining. […]

The next assay has as its target T3, SMURF2 (Homo sapiens, UniProt Q9HAU4).
T3 construct: HECT-domains of multiple ligases auto-ubiquitinate in in vitro assays containing both UBA1 and UbcH5b
Briefly: in vitro HECT-domain auto-ubiquitination assay, SMURF2. Format: biochemical.

The next assay addresses T4, NEDD4 (Homo sapiens, UniProt P46934).
T4 construct: HECT-domains of multiple ligases auto-ubiquitinate in in vitro assays containing both UBA1 and UbcH5b
Description: in vitro HECT-domain auto-ubiquitination assay, NEDD4. Format: biochemical.

T3 sequence (Q9HAU4 414-748 limits assumed, species assumed): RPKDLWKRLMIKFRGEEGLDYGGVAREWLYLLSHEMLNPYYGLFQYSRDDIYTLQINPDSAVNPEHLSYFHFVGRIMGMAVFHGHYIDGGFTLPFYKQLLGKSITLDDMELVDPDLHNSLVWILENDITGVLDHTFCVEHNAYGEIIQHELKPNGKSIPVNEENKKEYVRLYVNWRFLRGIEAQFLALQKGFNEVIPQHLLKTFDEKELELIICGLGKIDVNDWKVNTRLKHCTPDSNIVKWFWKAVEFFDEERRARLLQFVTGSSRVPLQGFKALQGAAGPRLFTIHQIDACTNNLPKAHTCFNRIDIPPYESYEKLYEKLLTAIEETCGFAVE
T4 sequence (P46934 984-1318 limits assumed, species assumed): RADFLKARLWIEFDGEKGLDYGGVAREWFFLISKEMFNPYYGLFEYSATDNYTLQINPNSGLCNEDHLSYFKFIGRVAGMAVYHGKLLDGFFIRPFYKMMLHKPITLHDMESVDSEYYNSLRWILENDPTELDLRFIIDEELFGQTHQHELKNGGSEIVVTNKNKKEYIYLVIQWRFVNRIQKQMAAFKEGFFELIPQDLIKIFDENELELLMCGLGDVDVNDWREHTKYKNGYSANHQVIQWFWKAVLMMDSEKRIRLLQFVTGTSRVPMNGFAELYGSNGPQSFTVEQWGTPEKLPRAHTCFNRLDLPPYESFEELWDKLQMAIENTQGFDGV

In the case of `Cc1c(C(=O)Nc2ccc(CN)cc2)ncnc1N1CCC(C#N)(c2ccccc2)CC1` [BI8622], the IC50 (usually the midpoint of a concentration-inhibition curve) at NEDD4L is over 50 µM; against ITCH, over 50 µM; with Ls174T cells (control Ls174T cells, read-out: IC50 growth inhibition, ctr cells), 8.1 µM; in the assay with Ls174T cells (partially HUWE1-depleted Ls174T cells, read-out: IC50 growth inhibition, shHUWE1 cells), 6.5 µM; on SMURF2, over 50 µM; against NEDD4, over 50 µM.

Take `NCc1cccc(CNc2ncnc3c(N4CCN(Cc5ccccc5)CC4)ncnc23)c1` [BI8626]: the IC50 at NEDD4L, against ITCH and on SMURF2 was over 50 µM in each case.
